Tests used:
C3H10T1/2 cells = assay: Oxygen consumption / uncoupled respiration of cultured mesenchymal stem cells; assay type: cell-based, mouse
Text: To determine whether the increased respiration was uncoupled from ATP synthesis, oligomycin-insensitive respiration was first assayed as a measure of uncoupled respiration. Oligomycin inhibits F1 ATP synthetase to suppress only oxidative phosphorylation-associated respiration.

HIB1 cells = assay: Differentiation of HIB1 brown preadipocytes (lipid accumulation, mitochondrial biogenesis); assay type: cell-based; details: SB408124 1 uM, OX treatment for 5 days
Experimental: To further investigate the role of OX in BAT differentiation, the effect of OX on the preadipocyte cell line HIB1 was evaluated. […] Expression of genes functioning in lipid metabolism and mitochondrial biogenesis was elevated while the anti-adipogenic factors […], Pref1, and Wnt10 were expressed at very low levels (FIG. 16).
HIB1 cells were stably transfected with lentivirus over-expressing orexin (Len-OX) and compared to vector controls in the absence or presence of exogenous OX (100 nM), Cells were cultured for 7 days in the absence of differentiation medium and stained with Oil Red O. By day 6 of adipogenic differentiation, orexin-expressing cells had undergone normal BAT differentiation as scored by lipid accumulation.
Brown fat morphological defects seen in both adult and newborn OXR1 KO mice were similar to those observed in OX KO mice. […] To examine the cellular and molecular consequences of OXR1 depletion, lentiviral vectors were used to express a short hairpin (sh) shRNA targeting OXR1 (shOXR1; Open Biosystems, Inc., catalog no. RMM4431-98766481) or a scrambled shRNA control (Open Biosystems, Inc., catalog no. RHS4346) in HIB1 mesenchymal cells. […] After 5 days of differentiation, cultures expressing the scrambled shRNA control had undergone brown fat differentiation as scored by Oil Red O staining and shown in FIG. 18. […]

[1] = test system: primary brown preadipocytes; assay: Differentiation of primary brown preadipocytes (Oil Red O); assay type: cell-based, mice; details: 3 days BMP7 or 100 nM OX, then adipogenic medium
Text: To assess differentiation of primary brown adipocytes, iBAT preadipocytes were isolated from 1-day-old mice and then differentiated in the presence of OX. Differentiation was confirmed by Oil Red O staining which visualizes lipid accumulation (FIG. 7). […] Taken together. OX activates a full program of brown fat adipogenesis by suppressing adipogenic inhibitors, including BAT regulators, elevating mitochondrial biogenesis and oxygen consumption, and inducing uncoupled respiration.
To investigate whether lack of OXR1 impaired BAT differentiation potential, primary brown preadipocytes from OXR1 knockout mice were isolated and differentiated. Generation of wild-type primary brown preadipocyte cell lines was derived from newborn wild-type mice as described previously by Klein et al. (Bioessays, 24: 382-388, 2002), which is hereby incorporated by reference in its entirety. Brown preadipocytes isolated from C57BL-6 mice served as positive control. All cell lines were maintained in Dulbecco's modified […] medium (DMEM), high glucose, supplemented with 10% FBS at 37° C. in a 5% CO2 environment. To induce adipogenesis, the cells were treated for 3 days with either BMP7 or 100 nM OX, at which time they were confluent. Cells were then incubated in adipogenic medium containing 0.125 mM indomethaein, […] dexamethazone, and […] 3-isobutyl-1-methyxanthine (IBMX) supplemented by 20 nM insulin as described by Tseng et al., (Nature, 454: 1000-1004, 2008) which is hereby incorporated by reference in its entirety.

For `N#CC(C#N)=NNc1ccc(OC(F)(F)F)cc1` [FCCP, reference compound], the “oxygen consumption of unstimulated, differentiated cells, increase” value (C3H10T1/2 cells; in the presence of FCCP) was 6 fold.

With `Cc1cc(NC(=O)Nc2ccc(N(C)C)cc2)c2cc(F)cc(F)c2n1` [SB408124, reference compound] the OX-dependent mitochondrial biogenesis (HIB1 cells) was “blunted”.

In the case of `CC[C@H]1/C=C/C=C/C[C@@H](C)[C@H](O)[C@@](C)(O)C(=O)[C@@H](C)[C@H](O)[C@@H](C)C(=O)[C@@H](C)[C@H](O)[C@@H](C)/C=C/C(=O)O[C@@H]2[C@H](C)[C@H](CC1)O[C@]1(CC[C@H](C)[C@H](C[C@@H](C)O)O1)[C@H]2C` [oligomycin, reference compound], the “respiration of unstimulated differentiated cells” value (C3H10T1/2 cells; absence of OX) is reported as “completely suppressed respiration”.

B1: BMP-7: recombinant human BMP-7 (cat. No. 4579, BioVision), a potent inducer of BAT differentiation (protein, UniProt P18075 293-431, looked up)
Bone morphogenetic protein 7: STGSKQRSQNRSKTPKNQEALRMANVAENSSSDQRQACKKHELYVSFRDLGWQDWIIAPEGYAAYYCEGECAFPLNSYMNATNHAIVQTLVHFINPETVPKPCCAPTQLNAISVLYFDDSSNVILKKYRNMVVRACGCH
With B1 the “differentiation of wild-type preadipocytes based on lipid accumulation” value [1] was “enhanced differentiation” and the “oxygen consumption of treated cells in the presence of oligomycin” value (C3H10T1/2 cells; oligomycin) was “efficiently consumed oxygen”.
